Earlier results, collected in US6365621B1, “Remedies or preventives for intractable epilepsy” (Pharmaceutical Co., Ltd., priority 1998, dated 2002).

Tested on: kainate-induced amygdala seizures
Conditions: high concentration; cited from earlier work

NS(=O)(=O)Cc1noc2ccccc12 [zonisamide]
Suppression of status epilepticus of kainate-induced amygdala seizure in acute phase: proven suppression effect
